{"source": "patent US20130150350A1", "about": "“Derivatives of 1-Phenyl-1,5-Dihydro-Benzo[B] [1,4]Diazepine-2,4-Dione as Inhibitors of HIV Replication” (BOEHRINGER INGELHEIM INTERNATIONAL GMBH, priority 2010, published 2013)", "key": {"[1]": {"target": "T1, HIV-1NL4-3 CA-NC protein (SEQ ID NO: 2) (Human immunodeficiency virus type 1 group M subtype B, UniProt P12493, G226D)", "T1 construct": "HIV-1NL4-3 CA-NC, Gag residues 133-432; initiator Met (start codon introduced by PCR primer) (N); made in house; host or cells: E. coli BL21(DE3), pET-11a", "experiment": "Immobilized capsid assembly assay (CAA)", "assay_type": "biochemical", "text": "(§1) SEQ ID NO: 1 is a nucleic acid of 900 base pairs encoding HIV-1NL4-3 CA-NC, Gag residues 133-432, having the CA G94D mutation (SEQ ID NO: 2). SEQ ID NO: 1, is transferred to pET-11a expression vector (Novagen™) by PCR amplification using primers that introduce an NdeI site and a start codon at the 5′-end and a BamHI site and a stop codon at the 3′-end. Resistance mutations in CA were identified by passage of the HIV-1 virus in the presence of compounds of the invention, namely V27A/I, K30R, S33G, V36T, T58I, G61E, G208A/R, E213G, K30R/T58I, K30R/G208R, V36T/G208R, S33G/T58I, S33G/G208R and T58I/G208R, all numbered with reference to SEQ ID NO: 2,. These resistance mutations may be introduced in the expression vector using the QuikChange® II Site-Directed Mutagenesis Kit (Stratagene) according to the manufacturer's instructions. SEQ ID NOS: 2 is expressed in the BL21(DE3) E. coli cells (Novagen™). Briefly, LB media is inoculated with overnight pre-cultures and grown at 37° C. until mid log-phase (Abs600 ˜0.6), protein expression is induced by addition of 0.5-1 mM isopropyl-β,D-thiogalactopyranoside (IPTG) and carried out for 4 to 6 hours at 30° C. Cells are harvested by centrifugation and pellets are stored at −80° C. until purification.\n(§2) Purification of CA-NC (SEQ ID NO: 2) is as follows: 5 to 10 g of cell paste are lysed by sonication in 40 ml of Buffer A [20 mM Tris pH 7.5; 1 μM ZnCl2; 10 mM β-mercaptoethanol] supplemented with 0.5M NaCl and Complete EDTA-free® protease inhibitors tablets (Roche). Nucleic acids and cell debris are removed by adding 0.11 volumes of 0.2 M ammonium sulfate and an equivalent volume of 10% poly-(ethyleneimine) pH 8.0, stirring the sample for 20 minutes at 4° C., followed by centrifugation at 30 000×g for 20 minutes. SEQ ID NO: 2 is recovered from the supernatant by adding 0.35 volumes of saturated ammonium sulfate solution followed by centrifugation at 10 000×g for 15 minutes. The pellet is dissolved in 10 ml of Buffer A+0.1 M NaCl and dialyzed overnight in the same buffer but at 0.05 M NaCl (Dialysis Buffer). The sample is then cleared by centrifugation and passed on a 1-ml HiTrapTMSP HP column (GE Healthcare) pre-equilibrated with Dialysis Buffer. SEQ ID NO: 2 is eluted with Buffer A+0.5 M NaCl, fractions containing the protein are pooled; concentration determination is done by Abs280 using the calculated molar extinction coefficient (E=40220 M-1 cm-1).\nReacti-Bind Neutravidin Coated black 384-well plates (Pierce Cat#15402) are washed with 80 μl/well of Buffer A (50 mM Tris pH 8.0; 350 mM NaCl; 10 μM ZnSO4; 0.0025% CHAPS (w/v); 50 μg/ml bovine serum albumin (BSA); 1 mM DTT). Immobilization of a 5′-end biotin labeled (TG)25 oligonucleotide (Integrated DNA Technology Inc.) is carried out by adding 50 μl/well of a 25 nM solution of oligonucleotide in Buffer A+5 mg/ml of BSA (Sigma™) and incubating overnight. Unbound material is removed by two 80 μl/well washes with Buffer A. Assembly reactions are performed in 60 μl/well reactions comprising test compound, 100 nM of 5′-end fluorescein labeled (TG)25 oligonucleotide (Integrated DNA Technology Inc.) and 2 μM of CA-NC protein (SEQ ID NO: 2), using Buffer A+1% DMSO. Assembly reactions are incubated for 2 hours at room temperature and non-immobilized material is removed by two successive 80 μl/well washes with Buffer A. Finally, 80 μl/well of Buffer A+0.1% sodium dodecyl sulfate (SDS) is added and incubated for 15 minutes prior to quantification of captured fluorescence on a Victor2 plate reader (PerkinElmer Life Sciences) equipped with fluorescein excitation and emission filters using the standard manufacturer's settings for fluorescein fluorescence. The amount of captured fluorescence is considered to be proportional to the level of assembly. The IC50 values for each compound are generated by fitting inhibition curves from ten-point dilution series to the following equation: […]"}, "[2]": {"target": "T2, assembled HIV-1 capsid complexes (CA-NC protein, SEQ ID NO: 2) (Human immunodeficiency virus type 1 group M subtype B, UniProt P12493, G226D)", "T2 construct": "HIV-1NL4-3 CA-NC, Gag residues 133-432; initiator Met (start codon introduced by PCR primer) (N); made in house; host or cells: E. coli BL21(DE3), pET-11a", "experiment": "Capsid disassembly assay (CDA)", "assay_type": "biochemical", "text": "The GAG polyprotein is the major structural protein required for HIV viral particle assembly. During the maturation process, Gag is cleaved by the viral protease and releases its four major proteins, matrix (MA), capsid (CA), nucleocapside (NC) and p6, as well as two spacer peptides termed SP1 and SP2. This triggers profound morphological changes to the viral particle as CA will reassemble to form the viral core, a structure that is essential for viral infectivity.\nas §1, §2\nReacti-Bind Neutravidin Coated black 384-well plates (Pierce Cat#15402) are washed with 80 μl/well of Buffer A (50 mM Tris pH 8.0; 350 mM NaCl; 10 μM ZnSO4; 0.0025% CHAPS (w/v); 50 μg/ml BSA; 1 mM DTT). Immobilization of a 5′-end biotin labeled (TG)25 oligonucleotide (Integrated DNA Technology Inc.) is carried out by adding 50 μl/well of a 25 nM solution of oligonucleotide in Buffer A+5 mg/ml BSA and incubating overnight. Unbound material is removed by two 80 μl/well washes with Buffer A. Assembly reactions are performed in 60 μl/well reactions comprising 100 nM of 5′-end fluorescein labeled (TG)25 oligonucleotide (Integrated DNA Technology Inc.) and 2 μM of CA-NC protein (SEQ ID NO: 2), using Buffer A. Assembly reactions are incubated for 2 hours at room temperature and non-immobilized material is removed by washing 80 μl/well with Buffer A. Test compounds, serially diluted in Buffer A+0.125% dimethyl sulfoxide (DMSO), are added to the wells (60 μl/well) and incubated at room temperature for 2 hours. […]"}, "[3]": {"system": "HIV-1 replication in C8166 LTRluc cells", "experiment": "C8166 HIV-1 luciferase assay", "assay_type": "cell-based", "conditions": "Human immunodeficiency virus 1, 72 h, inhibition of HIV-1 replication, moi 0.005, 3 days", "description": "The assay used to measure inhibition of HIV replication is as described in WO 2004/050643, pages 73-75, herein incorporated by reference, with the following modifications:\nSerial dilutions of HIV-1 inhibitors are prepared in complete media from DMSO stock solutions. Eleven serial dilutions of desired concentration are prepared in a 1 mL deep well titer plate (96 wells). The 12th well contains complete media with no inhibitor and serves as the positive control. All samples contain the same concentration of DMSO 0.1% DMSO). Inhibitor is added, to triplicate wells, of a 96 well tissue culture treated clear view black microtiter plate (Corning Costar catalogue #3904). The total volume per well is 200 μL of media containing the cells and inhibitor. The last row is reserved for uninfected C8166 LTRluc cells to serve as the background blank control and the first row is media alone.\nCount C8166 LTRluc cells and place in a minimal volume of complete RPMI 1640 in a tissue culture flask (ex. 30×10^6 cells in 10 mL media/25 cm^2 flask). Infect cells with HIV-1 at a moi of 0.005. Incubate cells for 1.5 hours at 37° C. on a rotating rack in a 5% CO2 incubator. Resuspend cells in complete RPMI to give a final concentration of 25,000-cells/well. Add cells to wells of 96 well microtiter plate containing inhibitors. Add 25,000 uninfected C8166—LTRluc cells/well in 200 μL complete RPMI to last row for background control. Incubate cells at 37° C. in 5% CO2 incubator for 3 days."}}, "data": [{"smiles": "CCCn1cc(-c2cc(C3C(=O)N(CC)c4ccc(C(F)(F)F)cc4N(c4ccccc4)C3=O)cc(OC)c2O)cn1", "note": "(stereo not drawn) [Compound 2059]", "values": [{"measurement": "IC50", "setting": "[1]", "result": 450, "unit": "nM"}, {"measurement": "IC50", "setting": "[2]", "result": 160, "unit": "nM"}, {"measurement": "EC50", "setting": "[3]", "result": 70, "unit": "nM"}]}]}
